Test system: renal cancer patients
Experiment: Clinical outcome of renal cancer patients treated with targeted drugs (nibs)
Format: in vivo, human
Settings: for # of transcriptomes taken from responders: sustained stabilization of tumor progress; for # of transcriptomes taken from non-responders: tumor progression despite the applied treatment
Procedure: A set of samples taken from the tumors of renal cancer patients who were treated at Clinical Hospital of the Hertzen Cancer Institute in Moscow. These samples were examined using the Illumina HT-12 platform at Medical Center of Lethbridge University in Canada. As a reference normal renal tissue, the dataset GSE49972 (Karlsson et al., 2014) obtained on the same platform, was used. […] The overview of renal cancer transcriptomes selected for the V-dataset, is shown below in Table 3.
As an example, we list here the details of case history for one of the patient, who has been a responder to Sunitinib treatment.
Person; the clear cell cancer in left kidney; disease progression stage T3N0M1, distant metastases to lungs and skeleton. Surgery has not been performed due to the overall progression of the disease. Before the chemotherapy for distant metastases, the patient received the symptomatic radiation therapy of 30 Gy on the pelvic and femoral zone. Two months after the patient received the neo-adjuvant Sunitinib therapy in overall dose of 50 mg.
As long as two years after the treatment, the patient was still alive and continued to receive the adjuvant Sunitinib therapy.

SMILES	# of transcriptomes taken from responders	# of transcriptomes taken from non-responders
Cc1ccc(Nc2nccc(N(C)c3ccc4c(C)n(C)nc4c3)n2)cc1S(N)(=O)=O [Pazopanib]	4	3
CNC(=O)c1cc(Oc2ccc(NC(=O)Nc3ccc(Cl)c(C(F)(F)F)c3)cc2)ccn1 [Sorafenib]	13	15
CCN(CC)CCNC(=O)c1c(C)[nH]c(/C=C2\C(=O)Nc3ccc(F)cc32)c1C [Sunitinib]	5	10

— patent US20170193176A1, “System, Method, and Software for Improved Drug Efficacy and Safety in a Patient” (Insilico Medicine, Inc., priority 2015, published 2017)
